Marks after values point to notes of the source that are not given here.
Legend:
mice = assay: Maximal Electroshock Test (MES); assay type: in vivo; conditions: for MES % Protection from Tonic Extension: 20 mice; for Time of Straightening Reflex Loss: mean of 20 mice
Method: MES seizures were induced by electroconvulsometer (ECT Unit Ugo Basile, Italy). Mice received an electroshock (50 mA at 60 Hz for 0.2 s duration) through intra-corneal electrodes. This current intensity elicited complete tonic extension of the hindlimbs in control mice. The stimulus was applied 30 min or 60 min after intraperitoneal (i.p.) or oral (p.o.) administration of the test compound, respectively. To evaluate the drug effect on the seizure severity, time of Straightening Reflex Loss and the presence of tonic hindlimb extension were selected as the parameters.

PTZ-treated mice = assay: Chemically induced seizures (pentylenetetrazole, PTZ); assay type: in vivo; conditions: for % Protection on PTZ induced convulsions: PTZ 90 mg/kg i.p. 30 min after compound, 20 mice
Method: Seizure-inducer pentylenetetrazole (PTZ) (90 mg/kg i.p.) was administered to mice 30 min after i.p. administration of the test compound.
Compound of Example 1 at the doses of 10 and 30 mg/kg i.p. was able to protect the animals from PTZ-induced convulsions. […]

[1] = 10 mg/kg i.p., stimulus 30 min after administration
[2] = 30 mg kg^-1 p.o., stimulus 60 min after administration

SMILES: C[C@H]1C(=O)NC(C)(C)N1Cc1ccc(OCc2cccc(F)c2)cc1 [Example 1, (S)-(-)-1-[4-(3-Fluoro-benzyloxy)-benzyl]-2,2,5-trimethyl-imidazolidin-4-one]
- MES % Protection from Tonic Extension (mice; [1]): 50* %
- Time of Straightening Reflex Loss (mice; [1]): 66.8 ± 9.3 s
- MES % Protection from Tonic Extension (mice; [2]): 30%
- Time of Straightening Reflex Loss (mice; [2]): 56.8 ± 6.3 s
- anticonvulsant activity in MES test (in words) (mice; either after i.p. (10 mg/kg) or oral (30 mg/kg) administration): significant anticonvulsant activity
- % Protection on PTZ induced convulsions (PTZ-treated mice; 3 mg/kg i.p.): 0%
- % Protection on PTZ induced convulsions (PTZ-treated mice; 10 mg/kg i.p.): 40%
- % Protection on PTZ induced convulsions (PTZ-treated mice; 30 mg/kg i.p.): 90%
- protection from PTZ-induced convulsions (in words) (PTZ-treated mice; highest dose (30 mg/kg i.p.)): almost complete

Source: patent publication EP2093218A1, “Arylalkyl substituted imidazolidinones” (Fariello, Ruggero, priority 2008, dated 2009)
